Data as given in patent publication US20010019716A1 (priority 1996, published 2001).

Key:
[1] = tested on: Mycobacterium tuberculosis; details: in vivo; cited from earlier work
[2] = tested on: HeLa cells; format: cell-based
[3] = tested on: HeLa cells; format: cell-based; remark: listed apart in the source

Compound	effective in preventing the disease [1]	blocking of uptake of Mcep-coated beads [2]	concentration of peptide at which internalization of the beads was achieved (as low as) [3] [nM]	concentration sufficient to permit uptake of the spheres by Hela cells [3]	entry of coated beads into HeLa cells compared with whole Mcep (SEQ. ID. No. 4) [3]	uptake of coated 0.3 μm latex microspheres, transmission electron microscopy [3]
NNC(=O)c1ccncc1 [isoniazid]	about 90%					
TKRRITPKDVIDVRSVTTEINT [Inv3]		competitively blocked	25	nanomolar concentration	as efficiently as the whole Mcep	uptake
